Experimental data reported in patent US20220034903A1, “Therapies That Target Autoimmunity For Treating Glaucoma And Optic Neuropathy” (The Schepens Eye Research Institute, Inc., priority 2011, published 2022).

Tests used:
Format in all cases: in vivo
RGCs [1] = experiment: Optic nerve crush injury, RGC loss at 4 weeks; conditions: wild-type mice, rapamycin i.p. 100 μg/day, 4 weeks post-optic nerve crush (87% loss without treatment)
Experimental: FIG. 9 is a bar chart showing that suppressing autoimmunity using immuno-deficient mice or immune suppressor promotes RGC survival after optic neuropathy. Optic never crush injury was performed in wild-type (wt) mice that received daily injection of PBS (wt) or rapamycin (Rapam) as well as in Rag1^−/− (Rag1) and TCRβ^−/− (TCRβ) mice. Animals were sacrificed 4 weeks post operation, and percentage of RGC loss was assessed. (*P<0.01 as compared to the normal subject group).
(§1) A standard procedure for quantification of RGC axon loss in optic nerve sections was used, e.g., as described in Cho et al., J Cell Sci 118, 863-872. (2005). Axonal density was calculated, and the percentage of axon loss was determined by comparing with the axon density calculated from corresponding regions of the contralateral control eyes. RGC loss was assessed quantitatively in retinal flat-mounts that were incubated with a primary antibody against a RGC specific marker, β-III-tubulin (Fournier, A. E. & McKerracher, L. Biochem Cell Biol 73, 659-664 (1995); Fitzgerald et al., Investigative ophthalmology & visual science (2009); Tuj1; Sigma-Aldrich, St.), followed by a Alexa Fluor 488-conjugated secondary antibody. The degree of RGC loss was assessed as previously described (Chen et al., Investigative ophthalmology & visual science 52, 36-44 (2011)). […]

retinal activity = experiment: Electroretinogram a and b wave after AION; conditions: mice with AION, vs IgG isotype-injected ischemia group, different intensity of light stimulation
RGCs [2] = experiment: AION (ischemic optic neuropathy), RGC loss in retinal flat-mounts; conditions: WT mice, injected into the vitreous at 3, 7 and 14 days post injury, sacrificed 4 weeks after AION, vs IgG isotype
Experimental: OKT3 antibody was injected into the vitreous of ischemia WT mice at 3, 7, and 14 days post injury. Injection of IgG isotype served as the control. All of the recipient mice were sacrificed at 4 weeks after AION.
as §1, with “(2011)). The total numbers and densities of RGCs were calculated, and the percentage of RGC loss was determined by comparing RGC number with that obtained from the corresponding regions of the contralateral control eyes.” for “(2011)).”

CO[C@H]1C[C@@H]2CC[C@@H](C)[C@@](O)(O2)C(=O)C(=O)N2CCCC[C@H]2C(=O)O[C@H]([C@H](C)C[C@@H]2CC[C@@H](O)[C@H](OC)C2)CC(=O)[C@H](C)/C=C(\C)[C@@H](O)[C@@H](OC)C(=O)[C@H](C)C[C@H](C)/C=C/C=C/C=C/1C [rapamycin]
RGC loss (RGCs [1]): 65%

OKT3 antibody: monoclonal antibody targeted at the CD3 receptor on T cells; clinically approved immunosuppressant
retinal function (electroretinogram a and b wave) after AION (retinal activity): functional rescue of retinal activity | effect on RGC loss after AION (RGCs [2]): neuroprotective effect
